IC50 data for one compound are collected here from article PMC9325719 (Nature Communications, 2022).

The assay has as its target Na+-NQR (Na+-pumping NADH-ubiquinone oxidoreductase), inhibitor site at NqrB N-terminal region (Vibrio cholerae, UniProt A5F5X0, E157A). The following applies: substrates NADH and ubiquinone-1; 50% inhibition not reached at highest concentration; mutant activity 50-60% lower than wild type.

For orientation: IC50 means the midpoint of a concentration-inhibition curve. Read a high IC50 as lower potency. In turn, `CCCCCCCC[C@H]1O[C@H]1C/C=C/C=C/[C@H](O)CC(=O)NC1=C[C@](C)(CC)OC1=O` [korormicin A] showed an IC50 of more than 2 µM.
